The values below are quoted from earlier work in publication PMC3303928 (Bioorganic & medicinal chemistry, 2012).

SMILES strings stand for the structures.

For this data set the following is noted: animal tests, racemic mixtures (and their corresponding 3R,4R stereoisomers).

Turning to `Cc1cc(N)nc(C[C@H]2CNC[C@H]2NCCNCCc2cccc(F)c2)c1` [Compound 1], the “blood-brain barrier (BBB) penetration” value is listed as “minimal”.

Consider `Cc1cc(N)nc(C[C@H]2CNC[C@H]2OCCNCCc2cccc(F)c2)c1` [Compound 3], for which the “blood-brain barrier (BBB) penetration” value is recorded as “minimal”.
